One data set can be described thus: in vitro. In kind it is cell-based. The note with it: human, Inhibitory Concentration at 50% Cytotoxicity (IC50) Human Liver Cells (HepG2). The essentials:
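HepG2 cells in EMEM with 10% FBS, allowed 4 h to attach, then exposed to serial dilutions of StAMPs (from a 5 mg/mL water stock) or vehicle. After 48 h at 37 °C, viability read by CellTiter-Glo luminescence.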

The subject of another data set is A. baumannii. In kind it is cell-based, Acinetobacter baumannii. The essentials: (§1)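 Read-out is visible growth: the MIC is the minimum peptide concentration showing none after 20-24 h at 37 °C. Peptides were serially diluted from water stocks and mixed with log-phase bacteria (final 5×10^5 CFU/ml) in Mueller-Hinton or cation-adjusted Mueller-Hinton broth.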
Another data set deals with K. pneumoniae. In kind it is cell-based, Klebsiella pneumoniae. The essentials:
as §1

Another data set deals with S. aureus. Format: cell-based, Staphylococcus aureus. The essentials:
as §1

Another data set concerns E. coli. Format: cell-based, Escherichia coli. The essentials:
as §1

Another data set deals with P. aeruginosa. Format: cell-based, Pseudomonas aeruginosa. The essentials: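 Broth microdilution adapted from CLSI in MHB or cation-adjusted MHB; log-phase P. aeruginosa at 5×10^5 CFU/ml final with serially diluted stapled peptides. Incubated 20-24 h at 37 °C; MIC is the lowest concentration without visible growth.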

≈ marks a conversion by molar mass, not a printed value. Positions of bridges follow the written chain, without caps; N, C: chain ends. Non-standard residues stand in square brackets, D forms with d. Residues, ends and D or L forms follow the SMILES beside them. S5 = C=CCCC[C@](C)(N)C(=O)O; Dap = NC[C@H](N)C(=O)O

Regarding `CC(C)[C@@H]1NC(=O)[C@@](C)(NC(=O)[C@H](C)NC(=O)[C@H](CCCCN)NC(=O)CNC(=O)[C@H](Cc2ccccc2)NC(=O)[C@H](CCCCN)NC(=O)[C@H](CCCCN)NC(=O)[C@H](CCCCN)NC(=O)[C@H](CCCCN)NC(=O)[C@H](CN)NC(=O)[C@]2(C)CCCC=CCCC[C@](C)(NC(=O)CN)C(=O)NCC(=O)N[C@@H](CCCCN)C(=O)N[C@@H](Cc3ccccc3)C(=O)N2)CCCC=CCCC[C@@](C)(C(=O)N[C@@H](CO)C(=O)N[C@@H](CCCCN)C(=O)N[C@@H](CCCCN)C(N)=O)NC(=O)[C@H](CCC(=O)O)NC(=O)CNC1=O` [compound 89] (H-G[S5]GKF[S5][Dap]KKKKFGKA[S5]VGE[S5]SKK-NH2; staple 2-6, 16-20), 199 µg/mL (≈ 78.4 µM) corresponded to half-maximal inhibition in the data set “in vitro” (IC50 at 48 hours). Further, in the data set on A. baumannii, the “Minimum Inhibitory Concentration (MIC) A. baumannii” value worked out at 1 µg/mL. Besides, in the data set on K. pneumoniae, the “Minimum Inhibitory Concentration (MIC) K. pneumoniae” value turned out to be 32 µg/mL. In addition, the “Minimum Inhibitory Concentration (MIC) S. aureus” value in the data set with S. aureus came out at 64 µg/mL. In addition, in the data set with E. coli, the “Minimum Inhibitory Concentration (MIC) E. coli” value is 2 µg/mL. For the same compound, the “Minimum Inhibitory Concentration (MIC) P. aeruginosa” value in the data set with P. aeruginosa was found to be 1 µg/mL.

In the case of `CC(C)[C@@H]1NC(=O)[C@@](C)(NC(=O)[C@H](C)NC(=O)[C@H](CCCCN)NC(=O)CNC(=O)[C@H](Cc2ccccc2)NC(=O)[C@H](CCCCN)NC(=O)[C@H](CCCCN)NC(=O)[C@H](CCCCN)NC(=O)[C@H](CO)NC(=O)[C@H](CCCCN)NC(=O)[C@]2(C)CCCC=CCCC[C@](C)(NC(=O)CN)C(=O)NCC(=O)N[C@@H](CCCCN)C(=O)N[C@@H](Cc3ccccc3)C(=O)N2)CCCC=CCCC[C@@](C)(C(=O)N[C@@H](C)C(=O)N[C@@H](CCCCN)C(=O)N[C@@H](CCCCN)C(=O)NCC(=O)NCC(=O)N[C@@H](CCC(=O)O)C(N)=O)NC(=O)[C@H](CCC(=O)O)NC(=O)CNC1=O` [compound 90] (H-G[S5]GKF[S5]KSKKKFGKA[S5]VGE[S5]AKKGGE-NH2; staple 2-6, 16-20), the IC50 at 48 hours in the data set “in vitro” was over 200 µg/mL. For the same compound, the “Minimum Inhibitory Concentration (MIC) A. baumannii” value with A. baumannii is 2 µg/mL. Also, in the data set on K. pneumoniae, the “Minimum Inhibitory Concentration (MIC) K. pneumoniae” value came to 32 µg/mL. Also, the “Minimum Inhibitory Concentration (MIC) S. aureus” value with S. aureus came to 64 µg/mL. Further, in the data set with E. coli, the “Minimum Inhibitory Concentration (MIC) E. coli” value was found to be 4 µg/mL. Also, the “Minimum Inhibitory Concentration (MIC) P. aeruginosa” value with P. aeruginosa is 2 µg/mL.

Take `CC(C)[C@@H]1NC(=O)[C@@](C)(NC(=O)[C@H](C)NC(=O)[C@H](CCCCN)NC(=O)[C@H](CO)NC(=O)[C@H](Cc2ccccc2)NC(=O)[C@H](CCCCN)NC(=O)[C@H](CCCCN)NC(=O)[C@H](CCCCN)NC(=O)[C@H](CCCCN)NC(=O)[C@H](CCCCN)NC(=O)[C@]2(C)CCCC=CCCC[C@](C)(NC(=O)CN)C(=O)NCC(=O)N[C@@H](CCCCN)C(=O)N[C@@H](Cc3ccccc3)C(=O)N2)CCCC=CCCC[C@@](C)(C(=O)N[C@@H](C)C(=O)N[C@@H](CCCCN)C(=O)N[C@@H](CCCCN)C(=O)NCC(=O)NCC(=O)N[C@@H](CCC(=O)O)C(N)=O)NC(=O)[C@H](CCC(=O)O)NC(=O)CNC1=O` [compound 91] (H-G[S5]GKF[S5]KKKKKFSKA[S5]VGE[S5]AKKGGE-NH2; staple 2-6, 16-20): the 50% inhibitory concentration (IC50) at 48 hours in “in vitro” is over 200 µg/mL. Also, the “Minimum Inhibitory Concentration (MIC) A. baumannii” value in the data set on A. baumannii was found to be 4 µg/mL. Further, the “Minimum Inhibitory Concentration (MIC) K. pneumoniae” value in the data set on K. pneumoniae was over 64 µg/mL. Further, the “Minimum Inhibitory Concentration (MIC) S. aureus” value in the data set on S. aureus was over 64 µg/mL. In addition, the “Minimum Inhibitory Concentration (MIC) E. coli” value with E. coli came out at 64 µg/mL. Besides, the “Minimum Inhibitory Concentration (MIC) P. aeruginosa” value in the data set on P. aeruginosa was 64 µg/mL.
